Laboratory results: patent US20220249586A1, “HEMP EXTRACT AND METHODS OF USE THEREOF” (ElleVet Sciences, priority 2019, published 2022)
Where “and” joins values, the source holds several entries; their conditions need not be identical. Equal entries are not always repeated.

Columns and labels:
[1] = Single-dose oral pharmacokinetics of CBD oil in beagles (serum CBD by LC-MS); format: in vivo; details: male, beagle, dog, median of 4 dogs, read-out: T½ elim (converted)
Protocol: An initial investigation into single-dose oral pharmacokinetics was performed with 4 beagles (3.5-7 years, male castrated, 10.7-11.9 kg). Each dog received a 2 mg/kg and an 8 mg/kg oral dosage of CBD oil, with a 2-week washout period between each experiment. The dogs were fed two hours after dosing. Physical examination was performed at 0, 4, 8 and 24 hours after dosing. Attitude, behavior, proprioception, and gait were subjectively evaluated at each time point during free running/walking and navigation around standard traffic cones (weaving). Five ml of blood was collected at time 0, 0.5, 1, 2, 4, 8, 12 and 24 hours after oil administration. Blood samples were obtained via jugular venipuncture and transferred to a coagulation tube for 20 minutes. […]
From the UHPLC-QQQ-MS data, peak areas were extracted for CBD detected in biological samples and normalized to the peak area of the internal standard CBD-d3, in each sample using Skyline as well as an in-house R Script (www.r-project.org). CBD concentrations were calculated to nanograms per mL of serum as determined by the line of regression of the standard curve (r2=0.9994, 0-1000 ng/mL). For this assay, the limits of detection (LOD) and limits of quantification (LOQ) represent the lower limits of detection and quantification for each compound in the matrix of this study. […]

[2] = Feline pharmacokinetics (cannabidiol in serum by LC-MS/MS); format: in vivo, cat; design: AUC 0 −> t: concentration or dose not given beside the values
Protocol: On the first day of dosing, blood was collected for a PK analysis from 6 of the 8 cats. The most cooperative cats were selected for the PK analysis. […] Samples were placed into a red top clotting tube with no serum separator. […] The harvested serum was placed in cyrovials stored at −70° C. Each tube was labeled with the cat id, date of collection and collection time point. Samples were shipped overnight on dry ice to the Proteomics & Metabolomics Facility at Colorado State University.
200 μL of cold (−20 C) 100% Acetonitrile (spiked with 60 ng/mL of d3-CBD) was added to each sample and vortexed at room temperature for 5 minutes. 200 μL of water was added and vortexed for an additional 5 minutes. 1 ml of 100% hexane was then added to each sample and vortexed for a final 5 minutes. […] The upper hexane layer was transferred to new-labeled glass vials (˜900 uL per sample), carefully avoiding the middle and lower layers.
An 8 point standard curve of CBD was generated in matrix background using a blank serum. Concentrations ranged from 0 ng/mL 1000 ng/mL (3.2× dilution series). 50 uL of each spiked serum sample was extracted as above.
LC-MS/MS was performed on a Waters Acquity M-Class UPLC coupled to a Waters Xevo TQ-S triple quadrupole mass spectrometer. […] Flow rate was 3.0 μL/min and injection volume was 2.0 μL. […]
Each target analyte was visually inspected for retention time and peak area integration. Peak areas were extracted for target compounds detected in biological samples and normalized to the peak area of the appropriate internal standard in each sample using in-house R Script (TQS-tools). CBD concentrations were calculated in nanograms per milliliter of extract (0.06 mL) and then back calculated to nanograms per mL of serum (0.05 mL of serum).
LOD are calculated based on the standard deviation of the response (Sy) of the 0 point calibration standard (i.e., 0 ng/mL CBD as an estimate on noise) and the slope of the calibration curve (S) at levels approximating the LOD according to the formula: LOD=^3*(Sy/S). […]

## C=C(C)[C@@H]1CCC(C)=C[C@H]1c1c(O)cc(CCCCC)cc1O [Cannabidiol, cannabidiol]
[1]; 2 mg/kg single oral dose
  half-life: 4.2 h
[1]; 8 mg/kg single oral dose
  half-life: 4.2 h
[2]; individual cats, 0 time to last collection [24 hr]
  AUC 0 −> t: 265.0 ng·h/mL and 54.2 ng·h/mL and 42.4 ng·h/mL and 212.2 ng·h/mL and 125.0 ng·h/mL and 134.2 ng·h/mL and 60.2 ng·h/mL
[2]; serum, po, 2 mg/kg
  Cmax: 47.6 ng/mL
[2]; serum, po, 2 mg/kg, individual cats, oral 2/mg/kg cannabidiol in capsule form, read-out: T½ el (converted)
  half-life: 1.2 h
